Assay [1] concerns demedullated rat. The assay can be described thus: Vasoconstrictive activity in a demedullated rat (increase in mean arterial pressure). It counts as in vivo. The settings on record: dose 10 mg/kg, venous route, demedullated male Sprague-Dawley rat. On the procedure:
Male Sprague-Dawley rats are anaesthetized with Nembutal (60 mg/kg) injected by intraperitoneal route. The animals are then demedullated, put under assisted respiration (1 ml/100 g--50 insufflations per minute), then the vagus nerves are sectioned. A carotid artery is catheterized to record the arterial pressure and the products to be studied are injected into the pudendal vein.
The animals receive endothelin 1 or the compound to be tested as cumulative injections by venous route, the administrations being spaced 2 minutes apart.
The increase in mean arterial pressure (MAP) induced by each compound is measured and expressed as a percentage variation relative to the initial pressure.

The subject of assay [2] is pressure response to endothelin. The assay can be described thus: Antagonism of the effects of endothelin in a demedullated rat (inhibition of the pressure response to endothelin 1). The class given is in vivo. On the procedure: Male Sprague-Dawley rats are anaesthetized with Nembutal (60 mg/kg) injected by intraperitoneal route. The animals are then demedullated, put under assisted respiration (1 ml/100 g--50 insufflations per minute), then the vagus nerves are sectioned. A carotid artery is catheterized to record the arterial pressure and the products to be studied are injected into the pudendal vein. Ten minutes after the intravenous injection of the solvent or compounds to be tested, the animals receive administrations of endothelin 1 in a cumulative manner (1, 3, 10 and 30 μg/kg i.v.) every 2 minutes. The antagonistic activity is expressed as a percentage of the inhibition of the pressure response to endothelin administered alone, at doses of 3 and 10 μg/kg.

Ends that are not written are not given here.

As for HAAIIW [Example 1], the “% increase of MAP” value in assay [1] was “+8%”. The “Percent change in pressure response to endothelin (negative = reduction)” value in assay [2] (dose 5 μg/kg i.v., 3 μg endothelin) is recorded as -27; in assay [2] (dose 5 μg/kg i.v., 10 μg endothelin), -19; in assay [2] (dose 10 μg/kg i.v., 3 μg endothelin) it was -60; in assay [2] (dose 10 μg/kg i.v., 10 μg endothelin), -33.
